Test results as given in patent US20230348852A1, “METHODS AND COMPOSITIONS FOR OCULAR CELL THERAPY” (NOVARTIS AG, priority 2020, published 2023).

B1: 11-HEYJA000008: gRNA targeting human B2M; targeting domain SEQ ID NO: 118; sgRNA SEQ ID NO: 169 (nucleic acid)
guide: CCACCUCUUGAUGGGGCUAGGUUUUAGAGCUAGAAAUAGCAAGUUAAAAUAAGGCUAGUCCGUUAUCAACUUGAAAAAGUGGCACCGAGUCGGUGCUUUU
modifications: listed as RNA, chemistry not given here
B2: 3-CR004366: gRNA targeting human B2M; targeting domain SEQ ID NO: 110; sgRNA SEQ ID NO: 161; from Dharmacon (nucleic acid)
guide: AAGUCAACUUCAAUGUCGGAGUUUUAGAGCUAGAAAUAGCAAGUUAAAAUAAGGCUAGUCCGUUAUCAACUUGAAAAAGUGGCACCGAGUCGGUGCUUUU
modifications: listed as RNA, chemistry not given here
notes: gRNA targeting human B2M; from Dharmacon
B3: 2-CR004366: gRNA targeting human B2M; targeting domain SEQ ID NO: 109; sgRNA SEQ ID NO: 160; from Dharmacon (nucleic acid)
guide: CGUGAGUAAACCUGAAUCUUGUUUUAGAGCUAGAAAUAGCAAGUUAAAAUAAGGCUAGUCCGUUAUCAACUUGAAAAAGUGGCACCGAGUCGGUGCUUUU
modifications: listed as RNA, chemistry not given here
notes: as for B2
B4: CR006979: gRNA targeting human B2M; targeting domain SEQ ID NO: 140; sgRNA SEQ ID NO: 177 (nucleic acid)
guide: UCCUGAAUUGCUAUGUGUCUGUUUUAGAGCUAGAAAUAGCAAGUUAAAAUAAGGCUAGUCCGUUAUCAACUUGAAAAAGUGGCACCGAGUCGGUGCUUUU
modifications: listed as RNA, chemistry not given here
B5: 5-CR004366: gRNA targeting human B2M; targeting domain SEQ ID NO: 112; sgRNA SEQ ID NO: 163; from Dharmacon (nucleic acid)
guide: CUGAAUCUUUGGAGUACCUGGUUUUAGAGCUAGAAAUAGCAAGUUAAAAUAAGGCUAGUCCGUUAUCAACUUGAAAAAGUGGCACCGAGUCGGUGCUUUU
modifications: listed as RNA, chemistry not given here
notes: as for B2
B6: 10-HEYJA000007: gRNA targeting human B2M; targeting domain SEQ ID NO: 117; sgRNA SEQ ID NO: 168 (nucleic acid)
guide: AGUCACAUGGUUCACACGGCGUUUUAGAGCUAGAAAUAGCAAGUUAAAAUAAGGCUAGUCCGUUAUCAACUUGAAAAAGUGGCACCGAGUCGGUGCUUUU
modifications: listed as RNA, chemistry not given here

Legend:
human limbal stem cells = assay: Human limbal stem cell population expansion and measurement (expansion factor, p63alpha-positive cells); format: cell-based; conditions: 10 micromolar in XVIVO15 medium, two passages; for Expansion factor: ratio of expanded population to seeded cells; for Percentage of p63a-positive cells: share of Sytox Orange-positive nuclei expressing p63alpha
Experimental: Cells were cultured at 37° C. in 5% CO2.
For each compound, two sets of cultures were generated. A first set of cultures was fixed in 4% PFA for 20 minutes at room temperature after cells isolated from the cornea had attached to the cell culture dish (typically 24 h after cell plating). A second set of cultures was fixed in 4% PFA for 20 minutes at room temperature after being cultured for two passages. Cells were passaged when they reached 90-100% confluence.
In order to observe that the expanded cell population expressed p63alpha, this was measured by immunohistochemistry as follows. The fixed cell cultures were permeabilized and blocked in a blocking solution of 0.3% Triton X-100 (Sigma-Aldrich) and 3% donkey serum in PBS for 30 minutes. Cells were then labeled with primary antibody in the blocking solution for 12 hours at 4° C. Primary antibody used was p63alpha from Cell Signalling. Samples were washed in PBS three times and donkey-raised secondary antibody Alexa Fluor 488 (Molecular Probes) at 1:500 dilution were applied for 30 minutes at room temperature. Cell nuclei were then labeled in a solution of 0.5 micromolar of Sytox Orange (ThermoFisher) in PBS for 5 minutes at room temperature.
To evaluate the percentage of p63alpha-positive cells, the number of cells labeled by the anti-p63alpha antibody was counted and the total number of cells was determined by counting the number of nuclei stained by Sytox Orange. The proportion of p63alpha-positive cells was then determined by calculating the percentage of Sytox-orange-positive nuclei that also expressed p63alpha.
To evaluate cell expansion ratios, nuclei were counted using a Zeiss LSM 880 confocal microscope. The expansion factor was then determined by calculating the ratio of the expanded population of cells to population of seeded cells.

human B2M = assay: CRISPR/Cas9-mediated deletion of B2M in HEK293 (lipofection, FACS); format: cell-based; conditions: lipofection of tracrRNA, gRNA and Cas9 mRNA; FACS after 72 h
Experimental: One day before transfection, 500′000 HEK293cells (ATCC, Manassas, VA) were plated in a 35 mm dish and grown in DMEM/10%FBS. The following day, cells were transfected with a mixture of tracrRNA-gRNA-Cas9 mRNA. A stock of 10 micromolar was prepared resuspending 20 nanomoles of gRNA and 20 nanomoles tracrRNA in 2000 microlitre 10 millimolar Tris buffer pH7.4 each.
The mixture was added drop wise to the culture dish in 2.5 ml DMEM/10%FBS medium. The transfection reagent alone represented the transfection negative control.
After 6 h incubation in 5% CO2 at 37° C. medium was replaced with fresh DMEM/10%FBS medium. After 72 h in a 5% CO2 incubator cells were prepared for FACS analysis. FACS analysis: HEK293 cells were treated with Accutase (ThermoFisher, Cat # A1110501) for 20 minutes in 5% CO2 at 37° C. The reaction was stopped by using cell culture medium containing 10% Serum and transferred to a falcon tube for a centrifugation step (1000 rpm, 5 minutes). After aspirating the medium cells were resuspended in 200 microlitre FACS buffer (PBS/10%FBS).
To analyze the expression of B2M and HLA-ABC, 5 microlitre APC mouse anti-human β2-microglobulin antibody (Biolegend, Cat #316312) and 20 microlitre PE mouse anti-human HLA-ABC antibody (BD Bioscience, Cat # 560168) were added to the cell suspension and incubated for 30 minutes on ice. Cells were washed 3 times after antibody labelling with FACS buffer and resuspended in 500 microlitre in FACS buffer.
Each sample was transferred to one well of a round bottom 96 well plate and analyzed on a BD LSRFortessa X-20 device. FACS data were analyzed using BD FACSDiva software.

B2M = assay: sgRNA screening for B2M knockout in LSCs (nucleofection, FACS); format: cell-based, human; conditions: Cas9 protein SEQ ID NO: 106, LSCs at passage 3, FACS after around 3 days
Experimental: Cells were cultured under these conditions for 24-48 hours at 37° C. in 5% CO2.
LSCs were nuclofected with selected gRNAs (Table 6) followed by FACS analysis / MACS separation.
After scraping the cells, the reaction was stopped by using cell culture medium containing 10% Serum and transferred to a falcon tube. After counting cells using Vi-cell 300′000 cells were prepared per reaction by transferring 300′000 cells in single tubes and centrifuged at 1000 rpm for 5 min. The supernatant was aspirated using manually pipetting to avoid cell loss and the cells were resuspended in the Stem cell nucleofector solution II (Lonza, Cat #VPH-5022). Resuspend cells in nucleofector solution immediately before adding the Cas9 RNP:sgRNA mixture. To obtain the nucleofection mixture, 5 µg high concentrated (≥5 µg/µl) Cas9 protein of SEQ ID NO: 106 (volume = 0.78 µl) was mixed with 19.5 µg sgRNA of Table 6 (volume = 12.2 µl) and incubated for 20 min at room temperature. […] The Cas9 protein-guideRNA complex was added to the cell suspension and transferred to the electroporation cuvette immediately. Cells were transfected using the nucelofector device (Lonza, Amaxa Nucleofector II) and program A023. After nucleofection cells were transferred from cuvette to one well of a 24 well synthemax coated plate containing pre-warmed LSC medium including 3 µM LATS compound and 10 µM Rock inhibitor Y-27632 (Nature 1997, vol. 389, pp. 990-994). Incubate LSCs in a 5% CO2 incubator for around 3 days until cells are 90% confluent.
LSCs were treated with TryLE®Express Enzym (ThermoFisher, Cat #12605010) for 15 minutes in 5% CO2 at 37° C. After scraping the cells, the reaction was stopped by using cell culture medium containing 10% Serum and transferred to a falcon tube for a centrifugation step (1000 rpm, 5 minutes). After aspirating the medium cells were resuspended in 200 µl FACS buffer (PBS/10%FBS).
To analyze the expression of B2M and HLA-ABC, 5 µl APC mouse anti-human β2-microglobulin antibody (Biolegend, Cat#316312) and 20 µl PE mouse anti-human HLA-ABC antibody (BD Bioscience, Cat # 560168) were added to the cell suspension and incubated for 30 minutes on ice.
Cells were washed 3 times after antibody labelling with FACS buffer and resuspended in 200 µl in FACS buffer (depending on the cell number).
FACS data were analyzed using BD FACSDiva software and FlowJo software.

Molecule	Expansion factor (human limbal stem cells)	Percentage of p63a-positive cells (human limbal stem cells) [%]	B2M knockout efficiency in HEK293 (human B2M) [%]	B2M knockout efficiency in LSCs after nucleofection (B2M) [%]
FC(F)(F)C1CN(c2nc(-c3ccncc3)nc3cnccc23)CCN1 (stereo not shown) [2-(pyridin-4-yl)-4-(3-(trifluoromethyl)piperazin-1-yl)pyrido[3,4-d]pyrimidine]	1051	90	–	–
CC1CCCC1Nc1nc(-c2ccncc2)nc2cnccc12 (stereo not shown) [N-(2-methylcyclopentyl)-2-(pyridin-4-yl)pyrido[3,4-d]pyrimidin-4-amine]	976	86	–	–
CC(C)(Nc1nc(-c2ccncc2Cl)nc2cnccc12)C(F)(F)F [2-(3-chloropyridin-4-yl)-N-(1,1,1-trifluoro-2-methylpropan-2-yl)pyrido[3,4-d]pyrimidin-4-amine]	961	87	–	–
CC1(Nc2cc(-c3ccncc3)cc3cnccc23)CC1 [N-(1-methylcyclopropyl)-7-(pyridin-4-yl)isoquinolin-5-amine]	681	80	–	–
CC(C)(C)Nc1cc(-c2ccncc2)nc2cnccc12 [Example 2, N-(tert-butyl)-2-(pyridin-4-yl)-1,7-naphthyridin-4-amine]	1717	93	–	–
FC(F)(F)C1(Nc2nc(-c3ccncc3)nc3cnccc23)CCC1 [2-(pyridin-4-yl)-N-[1-(trifluoromethyl)cyclobutyl]pyrido[3,4-d]pyrimidin-4-amine]	1712	95	–	–
c1cc(-c2nc(NC3CCCC3)c3ccncc3n2)ccn1 [N-cyclopentyl-2-(pyridin-4-yl)pyrido[3,4-d]pyrimidin-4-amine]	1048	87	–	–
CC(C)Nc1nc(-c2ccncc2)nc2cnccc12 [N-(propan-2-yl)-2-(pyridin-4-yl)pyrido[3,4-d]pyrimidin-4-amine]	1275	93	–	–
FC(F)(F)C1(Nc2nc(-c3ccncc3)cc3cnccc23)CC1 [3-(pyridin-4-yl)-N-(1-(trifluoromethyl)cyclopropyl)-2,6-naphthyridin-1-amine]	1241	95	–	–
CCCNc1nc(-c2c[nH]nc2C(F)(F)F)nc2cnccc12 [N-propyl-2-(3-(trifluoromethyl)-1H-pyrazol-4-yl)pyrido[3,4-d]pyrimidin-4-amine]	991	86	–	–
CC(C)(CO)Nc1nc(-c2ccncc2)nc2cnccc12 [2-methyl-2-{[2-(pyridin-4-yl)pyrido[3,4-d]pyrimidin-4-yl]amino}propan-1-ol]	1160	89	–	–
O[C@H]1CCC[C@@H]1Nc1nc(-c2ccncc2)nc2cnccc12 [(1S,2S)-2-{[2-(pyridin-4-yl)pyrido[3,4-d]pyrimidin-4-yl]amino}cyclopentan-1-ol]	39	6	–	–
CCCNc1nc(-c2ccncc2)nc2cnccc12 [N-propyl-2-(pyridin-4-yl)pyrido[3,4-d]pyrimidin-4-amine]	1423	93	–	–
B1	–	–	3	1
B2	–	–	12	2
B3	–	–	33	2
B4	–	–	–	2
B5	–	–	33	2
B6	–	–	13	1
